System: adipose tissue
Assay: addition of hyaluronic acid to liposuction infiltration solution
Assay type: in vivo
Details: added to infiltration solution
Procedure: Hyaluronic acid can also be added to infiltration solutions which are injected into the tissue prior to a liposuction. These infiltration solutions are usually isotonic or hypotonic salt solutions which can contain additives, for example blood vessel-contracting and/or pain-reducing additives, such as noradrenaline, adrenaline, lidocaine, prilocalne, bicarbonate, corticosteroids, etc. Hyaluronic acid (crosslinked and/or uncrosslinked hyaluronic acid) is advantageously added to these solutions at concentrations of from 0.001 to 1.0% (wt/vol), preferably of from 0.01 to 0.5% (wt/vol), e.g. of about 0.025% (wt/vol). […] Furthermore, structures in the adipose tissue which are worth conserving, such as blood vessels, nerves or connective tissue bands, are spared. Adding the hyaluronic acid also makes the process of liposuction markedly more atraumatic when compared with the conventional procedure. […] This also leads to a reduction in the tissue trauma. All in all, adding hyaluronic acid to the infiltration solution protects the remaining adipose tissue in the body and results in the adipose tissue aspirate being withdrawn in a gentler manner.
This is of importance insofar as adipose tissue aspirates can be used as endogenous transplants. […]

Substance: hyaluronic acid
- survival of fat cells in the aspirate: improves the survival of fat cells
- growth of transferred tissue at the recipient site (aspirate transplanted): grow more strongly
